Target: T1, IRP2 (Homo sapiens, UniProt P48200)
T1 construct: gene IREB2; isolated IRP2 immobilised on CM5 chip
T1 sequence (P48200 1-963): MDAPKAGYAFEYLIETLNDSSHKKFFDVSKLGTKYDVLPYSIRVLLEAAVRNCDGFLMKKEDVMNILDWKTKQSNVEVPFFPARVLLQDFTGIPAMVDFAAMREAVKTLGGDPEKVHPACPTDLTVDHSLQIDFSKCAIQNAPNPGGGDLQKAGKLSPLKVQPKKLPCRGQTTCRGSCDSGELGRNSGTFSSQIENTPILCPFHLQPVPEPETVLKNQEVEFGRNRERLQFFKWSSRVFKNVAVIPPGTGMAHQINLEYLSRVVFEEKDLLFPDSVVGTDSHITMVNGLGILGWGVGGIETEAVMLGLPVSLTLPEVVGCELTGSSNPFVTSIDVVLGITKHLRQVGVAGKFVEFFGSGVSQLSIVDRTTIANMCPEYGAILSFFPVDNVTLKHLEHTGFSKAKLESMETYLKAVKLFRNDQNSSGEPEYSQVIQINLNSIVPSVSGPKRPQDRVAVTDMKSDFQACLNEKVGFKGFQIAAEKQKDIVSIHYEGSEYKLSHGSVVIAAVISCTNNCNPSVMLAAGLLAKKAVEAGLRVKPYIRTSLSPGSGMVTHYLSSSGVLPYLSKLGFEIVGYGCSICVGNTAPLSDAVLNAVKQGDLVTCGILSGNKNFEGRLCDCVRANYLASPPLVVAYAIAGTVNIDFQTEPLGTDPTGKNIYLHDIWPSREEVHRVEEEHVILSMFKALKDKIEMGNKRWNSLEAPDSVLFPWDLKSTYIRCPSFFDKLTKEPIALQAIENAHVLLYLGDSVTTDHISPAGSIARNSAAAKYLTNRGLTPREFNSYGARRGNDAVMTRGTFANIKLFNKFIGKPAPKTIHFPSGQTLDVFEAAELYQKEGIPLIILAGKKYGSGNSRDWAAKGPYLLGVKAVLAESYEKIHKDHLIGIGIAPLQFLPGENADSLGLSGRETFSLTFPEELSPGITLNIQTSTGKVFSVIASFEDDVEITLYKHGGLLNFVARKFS
Experiment: SPR (Biacore T200, CM5 chip, multi-cycle kinetics, […] fit)
Assay type: binding

Kd [µM]	Compound
45.9	COc1ccc(S(=O)(=O)Nc2cccc(C)c2)cc1-c1cnc2[nH]ncc2c1 [KS-20073]
4.1	COc1ccc(S(=O)(=O)Nc2cccc(F)c2)cc1-c1cnc2[nH]nc(NC(C)=O)c2c1 [KS-20226]

Reference: article PMC11342626, “Inhibition of IRP2-dependent reprogramming of iron metabolism suppresses tumor growth in colorectal cancer” (Cell Communication and Signaling : CCS, 2024)
